Tests used:
[1] = target: Sodium-dependent dopamine transporter (Homo sapiens) (UniProt Q01959); settings: Compound concentration 10.0 uM
[2] = target: Ephrin type-A receptor 6 (Homo sapiens) (UniProt Q9UF33)
[3] = target: Inhibitor of nuclear factor kappa-B kinase subunit beta (Homo sapiens) (UniProt O14920)
[4] = target: Tyrosine-protein kinase Srms (Homo sapiens) (UniProt Q9H3Y6)
[5] = test system: Tyrosine-protein kinase ABL1 (Homo sapiens), P00519 [M351T]
[6] = target: Membrane-associated tyrosine- and threonine-specific cdc2-inhibitory kinase (Homo sapiens) (UniProt Q99640)
[7] = target: Serine/threonine-protein kinase N1 (Homo sapiens) (UniProt Q16512)
[8] = target: MAP/microtubule affinity-regulating kinase 4 (Homo sapiens) (UniProt Q96L34)
[9] = target: Mitogen-activated protein kinase 12 (Homo sapiens) (UniProt P53778)
[10] = test system: eIF-2-alpha kinase GCN2 (Homo sapiens), Q9P2K8 [S808G]
eIF-2-alpha kinase GCN2 (Homo sapiens), Q9P2K8 [S808G], sequence (Q9P2K8 whole entry S808G): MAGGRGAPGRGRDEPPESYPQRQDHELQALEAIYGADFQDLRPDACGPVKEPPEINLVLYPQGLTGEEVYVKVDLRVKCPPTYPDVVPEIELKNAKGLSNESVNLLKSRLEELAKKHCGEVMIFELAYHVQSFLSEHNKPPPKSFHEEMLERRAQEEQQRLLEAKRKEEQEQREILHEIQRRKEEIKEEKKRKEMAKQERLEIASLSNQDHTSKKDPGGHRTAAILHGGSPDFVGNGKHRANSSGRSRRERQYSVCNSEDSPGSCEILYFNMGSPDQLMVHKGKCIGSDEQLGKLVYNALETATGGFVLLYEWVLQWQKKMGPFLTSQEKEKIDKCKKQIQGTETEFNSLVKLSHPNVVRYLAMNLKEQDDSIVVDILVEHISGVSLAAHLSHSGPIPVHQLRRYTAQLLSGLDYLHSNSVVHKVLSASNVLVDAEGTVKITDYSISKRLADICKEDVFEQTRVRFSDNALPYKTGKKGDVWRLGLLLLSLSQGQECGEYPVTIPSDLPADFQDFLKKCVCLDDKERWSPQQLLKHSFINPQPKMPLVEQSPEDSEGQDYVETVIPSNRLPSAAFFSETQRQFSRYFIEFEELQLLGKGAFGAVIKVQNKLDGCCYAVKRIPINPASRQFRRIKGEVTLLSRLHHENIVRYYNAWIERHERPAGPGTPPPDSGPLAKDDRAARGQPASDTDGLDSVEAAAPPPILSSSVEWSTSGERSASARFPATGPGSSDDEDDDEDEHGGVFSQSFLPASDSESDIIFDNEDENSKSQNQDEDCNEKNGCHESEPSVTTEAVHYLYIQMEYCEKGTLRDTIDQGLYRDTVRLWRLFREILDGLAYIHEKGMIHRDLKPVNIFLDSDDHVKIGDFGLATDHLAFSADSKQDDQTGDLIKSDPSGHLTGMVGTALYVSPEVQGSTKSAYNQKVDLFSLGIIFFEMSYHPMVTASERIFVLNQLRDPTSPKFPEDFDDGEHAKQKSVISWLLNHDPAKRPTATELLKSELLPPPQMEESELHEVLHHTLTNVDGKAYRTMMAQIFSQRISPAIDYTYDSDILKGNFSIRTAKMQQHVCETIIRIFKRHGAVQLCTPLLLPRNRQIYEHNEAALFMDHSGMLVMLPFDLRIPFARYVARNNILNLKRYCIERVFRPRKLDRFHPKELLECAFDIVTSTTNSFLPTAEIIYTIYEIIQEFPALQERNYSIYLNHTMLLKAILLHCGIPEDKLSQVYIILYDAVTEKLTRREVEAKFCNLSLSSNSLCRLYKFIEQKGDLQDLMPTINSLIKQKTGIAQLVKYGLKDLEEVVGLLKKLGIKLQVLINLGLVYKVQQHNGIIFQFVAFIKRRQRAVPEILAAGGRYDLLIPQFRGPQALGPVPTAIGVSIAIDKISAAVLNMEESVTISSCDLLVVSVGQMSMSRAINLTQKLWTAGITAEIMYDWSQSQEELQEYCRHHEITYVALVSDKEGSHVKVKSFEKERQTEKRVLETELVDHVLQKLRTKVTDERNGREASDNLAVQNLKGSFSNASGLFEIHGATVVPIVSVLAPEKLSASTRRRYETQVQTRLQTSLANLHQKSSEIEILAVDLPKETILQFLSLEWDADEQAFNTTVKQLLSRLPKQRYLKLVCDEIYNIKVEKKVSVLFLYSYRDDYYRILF

[11] = target: Serine/threonine-protein kinase PLK3 (Homo sapiens) (UniProt Q9H4B4)
[12] = target: SRSF protein kinase 3 (Homo sapiens) (UniProt Q9UPE1)
[13] = target: Delta-type opioid receptor (Homo sapiens, UniProt P41143); settings: Compound concentration 10.0 uM
[14] = target: 5'-AMP-activated protein kinase catalytic subunit alpha-1 (Homo sapiens) (UniProt Q13131)
[15] = test system: Proto-oncogene tyrosine-protein kinase receptor Ret (Homo sapiens), P07949 [V804M]
[16] = target: Serine/threonine-protein kinase 32A (Homo sapiens) (UniProt Q8WU08)
[17] = target: Tyrosine-protein kinase JAK1 (Homo sapiens) (UniProt P23458)
[18] = target: Serine/threonine-protein kinase STK11 (Homo sapiens) (UniProt Q15831)
Serine/threonine-protein kinase STK11 (Homo sapiens), sequence (Q15831 whole entry): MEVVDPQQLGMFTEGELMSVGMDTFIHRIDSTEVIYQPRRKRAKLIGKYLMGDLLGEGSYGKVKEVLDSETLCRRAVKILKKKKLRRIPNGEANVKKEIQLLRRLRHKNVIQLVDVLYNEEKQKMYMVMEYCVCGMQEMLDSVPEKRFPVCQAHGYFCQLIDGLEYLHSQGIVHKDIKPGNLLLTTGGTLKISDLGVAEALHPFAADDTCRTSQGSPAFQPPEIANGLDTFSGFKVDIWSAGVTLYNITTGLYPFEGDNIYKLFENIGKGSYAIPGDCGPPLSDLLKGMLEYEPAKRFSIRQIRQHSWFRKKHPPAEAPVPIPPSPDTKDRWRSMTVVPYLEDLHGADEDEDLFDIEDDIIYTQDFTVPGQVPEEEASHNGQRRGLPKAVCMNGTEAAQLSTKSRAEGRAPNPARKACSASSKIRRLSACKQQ

[19] = target: Serine/threonine-protein kinase DCLK2 (Homo sapiens) (UniProt Q8N568)
[20] = target: AP2-associated protein kinase 1 (Homo sapiens) (UniProt Q2M2I8)
AP2-associated protein kinase 1 (Homo sapiens), sequence (Q2M2I8 whole entry, looked up): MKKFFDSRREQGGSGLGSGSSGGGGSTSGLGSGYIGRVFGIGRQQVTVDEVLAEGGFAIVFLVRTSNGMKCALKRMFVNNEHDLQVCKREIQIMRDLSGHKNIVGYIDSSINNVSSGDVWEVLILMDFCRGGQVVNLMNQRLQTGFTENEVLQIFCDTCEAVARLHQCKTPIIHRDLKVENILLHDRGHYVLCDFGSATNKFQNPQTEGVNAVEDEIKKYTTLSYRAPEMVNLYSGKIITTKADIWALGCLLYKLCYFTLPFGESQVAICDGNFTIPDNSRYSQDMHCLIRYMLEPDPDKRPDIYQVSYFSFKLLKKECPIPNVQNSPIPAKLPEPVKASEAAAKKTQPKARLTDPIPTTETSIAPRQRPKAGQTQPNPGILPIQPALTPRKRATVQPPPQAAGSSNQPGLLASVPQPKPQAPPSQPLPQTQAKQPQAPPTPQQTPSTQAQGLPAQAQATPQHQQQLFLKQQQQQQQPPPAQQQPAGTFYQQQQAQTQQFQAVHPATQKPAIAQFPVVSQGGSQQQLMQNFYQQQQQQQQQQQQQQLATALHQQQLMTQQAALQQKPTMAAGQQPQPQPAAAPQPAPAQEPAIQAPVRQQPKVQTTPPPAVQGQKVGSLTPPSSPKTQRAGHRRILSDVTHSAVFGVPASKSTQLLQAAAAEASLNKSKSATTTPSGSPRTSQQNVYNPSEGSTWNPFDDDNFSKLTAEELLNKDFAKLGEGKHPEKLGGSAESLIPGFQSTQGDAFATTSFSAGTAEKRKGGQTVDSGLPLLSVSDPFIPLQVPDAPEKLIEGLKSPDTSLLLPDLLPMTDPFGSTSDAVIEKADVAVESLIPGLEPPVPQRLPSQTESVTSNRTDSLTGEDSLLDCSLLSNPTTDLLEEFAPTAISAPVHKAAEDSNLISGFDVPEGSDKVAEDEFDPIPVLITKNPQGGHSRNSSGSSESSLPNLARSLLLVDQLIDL

[21] = target: Serine/threonine-protein kinase BRSK1 (Homo sapiens) (UniProt Q8TDC3)
[22] = target: Kappa-type opioid receptor (Homo sapiens, UniProt P41145); settings: Compound concentration 10.0 uM
[23] = target: Serine/threonine-protein kinase N2 (Homo sapiens) (UniProt Q16513)
[24] = target: Protein-tyrosine kinase 6 (Homo sapiens) (UniProt Q13882)
[25] = target: Serine/threonine-protein kinase ULK2 (Homo sapiens) (UniProt Q8IYT8)
[26] = target: Serine/threonine-protein kinase MRCK alpha (Homo sapiens) (UniProt Q5VT25)
[27] = target: 1-phosphatidylinositol 3-phosphate 5-kinase (Homo sapiens) (UniProt Q9Y2I7)
[28] = target: Tyrosine-protein kinase Blk (Homo sapiens) (UniProt P51451)
[29] = target: Casein kinase I isoform epsilon (Homo sapiens) (UniProt P49674)
[30] = target: BMP-2-inducible protein kinase (Homo sapiens) (UniProt Q9NSY1)
[31] = target: Mitotic checkpoint serine/threonine-protein kinase BUB1 (Homo sapiens) (UniProt O43683)
[32] = target: Dual specificity testis-specific protein kinase 1 (Homo sapiens) (UniProt Q15569)
[33] = target: Ephrin type-A receptor 2 (Homo sapiens) (UniProt P29317)
Ephrin type-A receptor 2 (Homo sapiens), sequence (P29317 whole entry): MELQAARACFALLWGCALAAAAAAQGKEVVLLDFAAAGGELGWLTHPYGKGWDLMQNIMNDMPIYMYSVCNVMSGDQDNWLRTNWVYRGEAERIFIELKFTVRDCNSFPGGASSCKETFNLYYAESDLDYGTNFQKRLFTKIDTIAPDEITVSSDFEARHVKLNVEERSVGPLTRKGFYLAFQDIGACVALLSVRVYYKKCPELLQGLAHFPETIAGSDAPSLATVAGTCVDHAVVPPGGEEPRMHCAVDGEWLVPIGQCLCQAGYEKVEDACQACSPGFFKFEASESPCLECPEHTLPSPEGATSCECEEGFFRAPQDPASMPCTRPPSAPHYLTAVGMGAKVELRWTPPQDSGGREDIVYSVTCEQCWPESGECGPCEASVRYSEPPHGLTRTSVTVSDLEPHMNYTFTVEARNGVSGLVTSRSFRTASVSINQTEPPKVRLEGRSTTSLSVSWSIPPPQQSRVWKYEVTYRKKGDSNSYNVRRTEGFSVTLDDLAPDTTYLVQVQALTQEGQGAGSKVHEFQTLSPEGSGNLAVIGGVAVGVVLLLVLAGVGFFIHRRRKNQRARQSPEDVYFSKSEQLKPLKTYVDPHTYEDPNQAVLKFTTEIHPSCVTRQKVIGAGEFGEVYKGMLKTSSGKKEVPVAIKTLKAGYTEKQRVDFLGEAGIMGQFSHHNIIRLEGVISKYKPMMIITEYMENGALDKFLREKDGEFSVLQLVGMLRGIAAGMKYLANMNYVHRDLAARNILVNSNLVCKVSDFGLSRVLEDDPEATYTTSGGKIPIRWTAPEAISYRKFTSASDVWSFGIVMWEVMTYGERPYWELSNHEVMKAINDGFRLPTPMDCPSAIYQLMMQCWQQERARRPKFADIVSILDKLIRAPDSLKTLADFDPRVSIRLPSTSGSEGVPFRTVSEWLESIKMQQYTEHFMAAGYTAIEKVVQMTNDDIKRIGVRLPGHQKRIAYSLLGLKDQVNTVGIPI

[34] = target: Receptor-interacting serine/threonine-protein kinase 4 (Homo sapiens) (UniProt P57078)
[35] = target: Alpha-2C adrenergic receptor (Homo sapiens) (UniProt P18825); settings: Compound concentration 10.0 uM
[36] = target: Serine/threonine-protein kinase 24 (Homo sapiens) (UniProt Q9Y6E0)
[37] = target: Transient receptor potential cation channel subfamily M member 6 (Homo sapiens) (UniProt Q9BX84)
[38] = target: G protein-coupled receptor kinase 4 (Homo sapiens) (UniProt P32298)
[39] = target: Serine/threonine-protein kinase D3 (Homo sapiens) (UniProt O94806)
[40] = target: Bone morphogenetic protein receptor type-2 (Homo sapiens) (UniProt Q13873)
[41] = target: Mitogen-activated protein kinase 14 (Homo sapiens) (UniProt Q16539)
[42] = target: Non-receptor tyrosine-protein kinase TYK2 (Homo sapiens) (UniProt P29597)
[43] = test system: Phosphatidylinositol 4,5-bisphosphate 3-kinase catalytic subunit alpha isoform (Homo sapiens), P42336 [H1047Y]
Phosphatidylinositol 4,5-bisphosphate 3-kinase catalytic subunit alpha isoform (Homo sapiens), P42336 [H1047Y], sequence (P42336 whole entry H1047Y, canonical isoform): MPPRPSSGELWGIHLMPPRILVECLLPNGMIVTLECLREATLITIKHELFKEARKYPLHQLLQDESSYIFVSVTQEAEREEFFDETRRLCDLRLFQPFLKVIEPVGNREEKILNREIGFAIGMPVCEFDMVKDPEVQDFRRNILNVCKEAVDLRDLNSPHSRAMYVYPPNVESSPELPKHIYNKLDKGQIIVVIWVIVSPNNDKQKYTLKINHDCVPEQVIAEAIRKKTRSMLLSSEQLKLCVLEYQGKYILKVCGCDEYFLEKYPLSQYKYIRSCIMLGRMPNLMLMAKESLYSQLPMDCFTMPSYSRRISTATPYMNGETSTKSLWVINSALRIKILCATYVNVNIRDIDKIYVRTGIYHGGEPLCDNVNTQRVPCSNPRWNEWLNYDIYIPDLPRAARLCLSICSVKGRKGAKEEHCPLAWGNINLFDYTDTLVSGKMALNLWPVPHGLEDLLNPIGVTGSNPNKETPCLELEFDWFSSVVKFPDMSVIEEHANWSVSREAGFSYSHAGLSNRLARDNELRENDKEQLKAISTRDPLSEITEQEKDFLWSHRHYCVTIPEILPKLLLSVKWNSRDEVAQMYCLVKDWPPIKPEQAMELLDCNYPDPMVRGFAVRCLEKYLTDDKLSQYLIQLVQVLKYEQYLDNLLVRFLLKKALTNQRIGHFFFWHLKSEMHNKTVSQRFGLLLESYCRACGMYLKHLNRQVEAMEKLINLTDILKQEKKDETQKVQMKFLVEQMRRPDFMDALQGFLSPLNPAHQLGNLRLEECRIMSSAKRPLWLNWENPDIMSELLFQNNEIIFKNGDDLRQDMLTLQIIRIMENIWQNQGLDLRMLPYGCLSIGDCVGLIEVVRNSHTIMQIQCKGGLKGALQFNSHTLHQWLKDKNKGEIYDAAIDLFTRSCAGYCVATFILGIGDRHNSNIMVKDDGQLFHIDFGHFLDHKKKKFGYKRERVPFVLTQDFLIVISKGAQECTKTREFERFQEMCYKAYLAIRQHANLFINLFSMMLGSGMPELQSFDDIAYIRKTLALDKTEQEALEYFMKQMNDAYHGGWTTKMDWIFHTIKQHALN

[44] = target: Serine/threonine-protein kinase 16 (Homo sapiens) (UniProt O75716)
[45] = target: Serine/threonine-protein kinase PAK 1 (Homo sapiens) (UniProt Q13153)
[46] = Compound concentration 1000.0 nM
[47] = Compound concentration 100.0 nM

Cc1cc(NC(=O)c2cccc(S(F)(F)(F)(F)F)c2)cc(-n2ccn3nc(-c4cccnc4)cc23)c1 [BAY-309]
inhibition [1]: 38.1%
residual activity [2, 46]: 100%
residual activity [3, 46]: 65.5%
residual activity [4, 46]: 86.9%
residual activity [5, 46]: 70.3%
residual activity [6, 46]: 100%
residual activity [7, 46]: 100%
residual activity [8, 46]: 84.8%
residual activity [9, 46]: 41.7%
residual activity [10, 46]: 100%
residual activity [11, 46]: 69.4%
residual activity [12, 46]: 100%
inhibition [13]: 58.5%
residual activity [14, 46]: 100%
residual activity [15, 46]: 74.2%
residual activity [16, 46]: 100%
residual activity [17, 46]: 100%
residual activity [18, 46]: 100%
residual activity [19, 46]: 100%
residual activity [20, 46]: 100%
residual activity [21, 46]: 100%
inhibition [22]: 64.8%
residual activity [23, 46]: 100%
residual activity [24, 46]: 100%
residual activity [25, 46]: 73.7%
residual activity [26, 46]: 88.5%
residual activity [27, 46]: 100%
residual activity [28, 46]: 100%
residual activity [29, 46]: 75.7%
residual activity [30, 46]: 65.9%
residual activity [31, 46]: 100%
residual activity [32, 46]: 91.7%
residual activity [33, 46]: 100%
residual activity [34, 46]: 34.1%
inhibition [35]: -5.04%
residual activity [36, 46]: 100%
residual activity [37, 46]: 97%
residual activity [38, 46]: 100%
residual activity [39, 46]: 100%
residual activity [40, 46]: 59.3%
residual activity [41, 46]: 100%
residual activity [42, 46]: 51%
residual activity [43, 46]: 22.9%
residual activity [44, 46]: 53.9%
residual activity [45, 46]: 90.9%

Cc1cc(C)c(-n2ccn3nc(-c4cccnc4)cc23)cc1NC(=O)c1cc(C#N)cc(S(F)(F)(F)(F)F)c1 [BAY-826]
inhibition [1]: 10.7%
residual activity [2, 47]: 82.6%
residual activity [3, 47]: 100%
residual activity [4, 47]: 67.4%
residual activity [5, 47]: 82.6%
residual activity [6, 47]: 100%
residual activity [7, 47]: 96.7%
residual activity [8, 47]: 92.4%
residual activity [9, 47]: 61.2%
residual activity [10, 47]: 100%
residual activity [11, 47]: 81.8%
residual activity [12, 47]: 100%
inhibition [13]: 18.7%
residual activity [14, 47]: 77%
residual activity [15, 47]: 94.5%
residual activity [16, 47]: 100%
residual activity [17, 47]: 100%
residual activity [18, 47]: 75.9%
residual activity [19, 47]: 90.6%
residual activity [20, 47]: 95.9%
residual activity [21, 47]: 84%
inhibition [22]: 89.4%
residual activity [23, 47]: 100%
residual activity [24, 47]: 99.5%
residual activity [25, 47]: 100%
residual activity [26, 47]: 100%
residual activity [27, 47]: 74.9%
residual activity [28, 47]: 100%
residual activity [29, 47]: 98.7%
residual activity [30, 47]: 94.7%
residual activity [31, 47]: 99.8%
residual activity [32, 47]: 85.1%
residual activity [33, 47]: 79.6%
residual activity [34, 47]: 62.9%
inhibition [35]: -7.91%
residual activity [36, 47]: 75.9%
residual activity [37, 47]: 80.2%
residual activity [38, 47]: 100%
residual activity [39, 47]: 97%
residual activity [40, 47]: 89.4%
residual activity [41, 47]: 0%
residual activity [42, 47]: 76.9%
residual activity [43, 47]: 76.2%
residual activity [44, 47]: 64.3%
residual activity [45, 47]: 82.2%
